Assays:
[1] = system: C57BL/6J mice; experiment: Glucokinase activator in vivo screen (blood glucose after oral dosing); conditions: oral gavage 50 mg/kg after two hour fast, readings 1, 2, 4 and 6 hours post dose, p≦0.05 for two consecutive assay time points
Protocol: Glucokinase Activator in vivo Screen Protocol: C57BL/6J mice are orally dosed via gavage with Glucokinase (GK) activator at 50 mg/kg body weight following a two hour fasting period. Blood glucose determinations are made five times during the six hour post-dose study period.
Mice (n=6) are weighed and fasted for a two hour period prior to oral treatment.

For `CS(=O)(=O)c1ccc([C@@H](CC2CCCC2)C(=O)Nc2cnc(-c3ccoc3)cn2)cc1Cl` [Example 78, 2(R)-(3-Chloro-4-methanesulfonyl-phenyl)-3-cyclopentyl-N-(5-furan-3-yl-pyrazin-2-yl)-propionamide], the “decrease in blood glucose compared to vehicle” value (from here on “decrease in blood glucose”) [1] was “statistically significant (p≦0.05) decrease in blood glucose” and the melting point was 97 to 101 °C.

For `C/C(=N/O)c1cnc(NC(=O)[C@H](CC2CCCC2)c2ccc(S(C)(=O)=O)cc2)cn1` [Example 34, 3-Cyclopentyl-N-[5-(1-hydroxyimino-ethyl)-pyrazin-2-yl]-2(R)-(4-methanesulfonyl-phenyl)-propionamide], the “decrease in blood glucose” value [1] was “statistically significant (p≦0.05) decrease in blood glucose” and the melting point was 118.8 to 122.4 °C.

`CN(C)S(=O)(=O)c1cnc(NC(=O)[C@H](CC2CCCC2)c2ccc(S(C)(=O)=O)c(Cl)c2)cn1` [Example 9, 2(R)-(3-Chloro-4-methanesulfonyl-phenyl)-3-cyclopentyl-N-(5-dimethylsulfamoyl-pyrazin-2-yl)-propionamide] gave a melting point of 100.2 °C.

In the case of `C[S+]([O-])c1cnc(NC(=O)[C@H](CC2CCCC2)c2ccc(S(C)(=O)=O)c(Cl)c2)cn1` (stereo partly drawn) [Example 7, 2(R)-(3-Chloro-4-methanesulfonyl-phenyl)-3-cyclopentyl-N-(5-methanesulfinyl-pyrazin-2-yl)-propionamide], the “decrease in blood glucose” value [1] is reported as “statistically significant (p≦0.05) decrease in blood glucose” and the melting point is reported as 88 to 95 °C.

In the case of `CSc1cnc(NC(=O)[C@H](CC2CCCC2)c2ccc(S(C)(=O)=O)cc2)cn1` [Example 5, 3-Cyclopentyl-2(R)-(4-methanesulfonyl-phenyl)-N-(5-methylsulfanyl-pyrazin-2-yl)-propionamide], the melting point is reported as 71 to 77 °C.

`CS(=O)(=O)c1ccc(C(CC2CCCC2)C(=O)Nc2cnc(/C(C#N)=N\O)cn2)cc1Cl` (stereo not drawn) [Example 37, 2-(3-Chloro-4-methanesulfonyl-phenyl)-N-[5-(cyano-hydroxyimino-methyl)-pyrazin-2-yl]-3-cyclopentyl-propionamide] showed a melting point of 130 to 133 °C.

With `CS(=O)(=O)c1ccc([C@@H](CC2CCCC2)C(=O)Nc2cnc(SCCO)cn2)cc1Cl` [Example 6, 2(R)-(3-Chloro-4-methanesulfonyl-phenyl)-3-cyclopentyl-N-[5-(2-hydroxy-ethylsulfanyl)-pyrazin-2-yl]-propionamide] the “decrease in blood glucose” value [1] was “statistically significant (p≦0.05) decrease in blood glucose” and the melting point was 78 to 81 °C.

Work on `CC(=O)c1cnc(NC(=O)[C@H](CC2CCCC2)c2ccc(S(C)(=O)=O)c(Cl)c2)cn1` [Example 39, N-(5-Acetyl-pyrazin-2-yl)-2(R)-(3-chloro-4-methanesulfonyl-phenyl)-3-cyclopentyl-propionamide] yielded a melting point of 77 to 80 °C.

In the case of `Cc1nc(-c2cnc(NC(=O)C(CC3CCCC3)c3ccc(S(C)(=O)=O)c(Cl)c3)cn2)no1` (stereo not drawn) [Example 33, 2-(3-Chloro-4-methanesulfonyl-phenyl)-3-cyclopentyl-N-[5-(5-methyl-[1,2,4]oxadiazyl-3-yl)-pyrazin-2-yl]-propionamide], the melting point is reported as 101.9 to 104.8 °C.

For `CN(C)c1ccc(NC(=O)[C@H](CC2CCCC2)c2ccc(S(C)(=O)=O)c(Cl)c2)nc1` [Example 14, 2(R)-(3-Chloro-4-methanesulfonyl-phenyl)-3-cyclopentyl-N-(5-dimethylamino-pyridin-2-yl)-propionamide], the “decrease in blood glucose” value [1] was “statistically significant (p≦0.05) decrease in blood glucose” and the melting point was 166.2 °C.

For `C[S+]([O-])Cc1cnc(NC(=O)[C@H](CC2CCCC2)c2ccc(S(C)(=O)=O)c(Cl)c2)cn1` (stereo partly drawn) [Example 38, 2(R)-(3-Chloro-4-methanesulfonyl-phenyl)-3-cyclopentyl-N-(5-methanesulfinylmethyl-pyrazin-2-yl)-propionamide], the melting point was 102 to 106 °C.

For `CS(=O)(=O)Nc1ccc(NC(=O)[C@H](CC2CCCC2)c2ccc(S(C)(=O)=O)c(Cl)c2)nc1` [Example 12, 2(R)-(3-Chloro-4-methanesulfonyl-phenyl)-3-cyclopentyl-N-(5-methanesulfonylamino-pyridin-2-yl)-propionamide], the “decrease in blood glucose” value [1] was “statistically significant (p≦0.05) decrease in blood glucose” and the melting point was 146 to 150 °C.

Work on `CS(=O)(=O)c1ccc([C@@H](CC2CCCC2)C(=O)Nc2cnc(-c3ccc(C#N)s3)cn2)cc1Cl` [Example 79, 2(R)-(3-Chloro-4-methanesulfonyl-phenyl)-N-[5-(5-cyano-thiophen-2-yl)-pyrazin-2-yl]-3-cyclopentyl-propionamide] yielded a melting point of 101 to 107 °C.

With `CS(=O)(=O)Nc1cnc(NC(=O)[C@H](CC2CCCC2)c2ccc(S(C)(=O)=O)c(Cl)c2)cn1` [Example 13, 2(R)-(3-Chloro-4-methanesulfonyl-phenyl)-3-cyclopentyl-N-(5-methanesulfonylamino-pyrazin-2-yl)-propionamide] the melting point was 108 to 110 °C.

With `CS(=O)(=O)c1ccc([C@@H](CC2CCCC2)C(=O)Nc2cnc(-c3cccs3)cn2)cc1Cl` [Example 76, 2(R)-(3-Chloro-4-methanesulfonyl-phenyl)-3-cyclopentyl-N-(5-thiophen-2-yl-pyrazin-2-yl)-propionamide] the “decrease in blood glucose” value [1] was “statistically significant (p≦0.05) decrease in blood glucose” and the melting point was 97 to 99 °C.

With `CS(=O)(=O)c1ccc([C@@H](CC2CCCC2)C(=O)Nc2cnc(/C(N)=N\O)cn2)cc1Cl` [Example 1, 2(R)-(3-Chloro-4-methanesulfonyl-phenyl)-3-cyclopentyl-N-[5-(N-hydroxycarbamimidoyl)-pyrazin-2-yl]-propionamide] the “decrease in blood glucose” value [1] was “statistically significant (p≦0.05) decrease in blood glucose” and the melting point was 117 to 121 °C.

Work on `CS(=O)(=O)c1ccc([C@@H](CC2CCCC2)C(=O)Nc2cnc(-c3ccsc3)cn2)cc1Cl` [Example 77, 2(R)-(3-Chloro-4-methanesulfonyl-phenyl)-3-cyclopentyl-N-(5-thiophen-3-yl-pyrazin-2-yl)-propionamide] yielded a melting point of 96 to 102 °C.

In the case of `CS(=O)(=O)c1ccc([C@@H](CC2CCCC2)C(=O)Nc2cnc(C(=O)NO)cn2)cc1Cl` [Example 29, 5-[2(R)-(3-Chloro-4-methanesulfonyl-phenyl)-3-cyclopentyl-propionylamino]-pyrazine-2-carboxylic acid hydroxyamide], the “decrease in blood glucose” value [1] is reported as “statistically significant (p≦0.05) decrease in blood glucose” and the melting point is reported as 134 to 139 °C.

In the case of `CS(=O)(=O)c1ccc([C@@H](CC2CCCC2)C(=O)Nc2cnc(/C(N)=N\O)cn2)cc1` [Example 3, 3-Cyclopentyl-2(R)-N-[5-(N-hydroxycarbamimidoyl)-pyrazin-2-yl]-2-(4-methanesulfonyl-phenyl)-propionamide], the “decrease in blood glucose” value [1] is reported as “statistically significant (p≦0.05) decrease in blood glucose” and the melting point is reported as 223 °C (dec.).

For `CS(=O)(=O)c1ccc([C@@H](CC2CCCC2)C(=O)Nc2cnc(C[C@@H](O)CO)cn2)cc1Cl` [Example 82, 2(R)-(3-chloro-4-methanesulfonyl-phenyl)-3-cyclopentyl-N-[5-(2(R),3-dihydroxy-propyl)-pyrazin-2-yl]-propionamide], the melting point was 64 to 69 °C.

In the case of `CS(=O)(=O)c1ccc([C@@H](CC2CCCC2)C(=O)Nc2cnc(C(CO)CO)cn2)cc1Cl` [Example 40, 2(R)-(3-Chloro-4-methanesulfonyl-phenyl)-3-cyclopentyl-N-[5-(2-hydroxy-1-hydroxymethyl-ethyl)-pyrazin-2-yl]-propionamide], the melting point is reported as 110 to 120 °C.

In the case of `Cc1noc(-c2cnc(NC(=O)[C@H](CC3CCCC3)c3ccc(S(C)(=O)=O)c(Cl)c3)cn2)n1` [Example 35, 2(R)-(3-Chloro-4-methanesulfonyl-phenyl)-3-cyclopentyl-N-[5-(3-methyl-[1,2,4]oxadiazol-5-yl)-pyrazin-2-yl]-propionamide], the melting point is reported as 101 to 105 °C.

With `CSCc1cnc(NC(=O)[C@H](CC2CCCC2)c2ccc(S(C)(=O)=O)c(Cl)c2)cn1` [Example 36, 2(R)-(3-Chloro-4-methanesulfonyl-phenyl)-3-cyclopentyl-N-(5-methylsulfanylmethyl-pyrazin-2-yl)-propionamide] the melting point was 75 to 76.7 °C.

Compound `CS(=O)(=O)c1ccc([C@@H](CC2CCCC2)C(=O)Nc2cnc(C[C@H](O)CO)cn2)cc1Cl` [Example 81, 2(R)-(3-Chloro-4-methanesulfonyl-phenyl)-3-cyclopentyl-N-[5-(2(S),3-dihydroxy-propyl)-pyrazin-2-yl]-propionamide] has a melting point of 61 to 65 °C.

For `CN(C)c1cnc(NC(=O)[C@H](CC2CCCC2)c2ccc(S(C)(=O)=O)c(Cl)c2)cn1` [Example 15, 2(R)-(3-Chloro-4-methylsulfonyl-phenyl)-3-cyclopentyl-N-(5-dimethylamino-pyrazin-2-yl)-propionamide], the “decrease in blood glucose” value [1] was “statistically significant (p≦0.05) decrease in blood glucose” and the melting point was 93.3 to 97.7 °C.

For `CS(=O)(=O)c1ccc([C@@H](CC2CCCC2)C(=O)Nc2cnc(-c3noc(N)n3)cn2)cc1Cl` [Example 17, N-[5-(5-Amino-[1,2,4]oxadiazol-3-yl)-pyrazin-2-yl]-2(R)-(3-chloro-4-methanesulfonyl-phenyl)-3-cyclopentyl-propionamide], the “decrease in blood glucose” value [1] was “statistically significant (p≦0.05) decrease in blood glucose” and the melting point was 262 to 264 °C.

`CN(C)Cc1cnc(NC(=O)[C@H](CC2CCCC2)c2ccc(S(C)(=O)=O)c(Cl)c2)cn1` [Example 32, 2(R)-(3-Chloro-4-methanesulfonyl-phenyl)-3-cyclopentyl-N-(5-dimethylaminomethyl-pyrazin-2-yl)-propionamide] showed a melting point of 88 to 91.5 °C.

— patent US7132425B2, “5-substituted-six-membered heteroaromatic glucokinase activators” (Hoffmann-La Roche Inc., priority 2002, dated 2006)
